# Test results from patent publication US5219825A, “Synergistic herbicidal compositions comprising herbicides which generate toxic oxygen radicals and chelating agents which inhibit their detoxification” (Yeda Research and Development Co., Ltd., priority 1986, dated 1993).
# How the values were obtained:
# [1] = system: Biotypes of certain weed species; settings: cited from earlier work
# [2] = system: bean leaf discs; experiment: Bean leaf disc bleaching assay; assay type: cell-based; settings: paraquat 20 μM; chelator 0.01% w/v where added; 5 h at 450 μEin.m^-2 s^-1
# Method: We used this bean leaf disc system to ascertain the potential of chelators to synergize a large variety of phytotoxicants purported to act by generating active oxygen species in the light.
# Bean discs were incubated on solutions containing the above mixtures for 5 h at 450 μEin.m^-2 s^-1 and the chlorophyll remaining in the leaves was assayed.
# [3] = system: Conyza bonariensis high herbicide requiring biotype; experiment: Whole plant spray, visual rating; assay type: in vivo
# Source text: (§1) Seeds of Conyza bonariensis were germinated and plants cultivated as outlined in Example 1. Other species were germinated in a similar mixture and treated at 10 days.
# (§2) The commercial fungicides, maneb [manganese ethylene-bis(dithiocarbamate) (polymeric)] and zineb [zinc ethylene-bis (dithiocarbamate) (polymeric)] were used, they have similar structures and effects as DDC, but are blocked and act as chelate controls […] to clarify that a synergism would be due to the chelating effect of diethyldithiocarbamate. […] They could not chelate copper due to their being blocked.
# (§3) ^a visual ratings (scored 1 day after treatment): 0 no damage to
# (§4) slight burn; 1 moderate burn (may regenerate); 2 severe burn (will die)
# (§5) Similarly, both the paraquat resistant and sensitive biotypes of Conyza bonariensis were treated with two other oxidant generating herbicides. Atrazine (of the triazine group) is the most widely used oxidant generating herbicides in agriculture. We used various dilutions of a commercial wettable powder (Atranex 50WP-Agan Chemicals) to which we added 0.5% DDC. The effects were scored 24 h later. […] We also tested to see whether acifluorfen, a nitro diphenyl ether herbicide would be synergized. It is generally agreed that light and oxygen are required for its action via oxidant damage. We sprayed a commercial formulation of acifluorfen (Blazer, Rohm and Haas) to which were added 0.25% Tween-20 detergent, with and without DDC. The effects were scored 24 h later.
# [4] = system: Conyza bonariensis low herbicide requiring biotype; experiment: Whole plant spray, visual rating; assay type: in vivo
# Source text: as §1, §2, §3, §4, §5
# [5] = system: isolated Asparagus sprengeri cells; experiment: Chlorophyll loss in isolated cells (synergism at the cellular level); assay type: cell-based; settings: for % of control chlorophyll: low light 305 μEin m^-2 s^-1
# Method: Isolated cells offer an excellent rapid method of screening for phytotoxicity using a large number of potential chelators and synergists. Asparagus sprengeri cells were isolated from cladophylls of field grown plants using the procedure of Colman et al. (Can. J. Botany 57 1505, (1979)) except that the isolation, washing and culture buffer was 50 mM HEPES brought to pH 7.2 with KOH. The cladophylls were surface sterilized using 80% aqueous ethanol. After three centrifugations to remove broken cells, the cells were diluted to 10% packed volume and 0.75 ml were placed in each well of cluster dishes. The potential synergists in this example 0.02% w/v final concentration diethyldithiocarbamate (DDC) and an oxime of 4-octyl-2-acetyl-phenol (U.S. Pat. No. 4,215,219) which complex primarily with copper and di-2-ethylhexyl-phosphoric acid which complexes primarily with zinc (Flett, Chem and Ind. 17 706, (1977)) was placed with the herbicides atrazine and paraquat. All additions were made at 100 fold the final concentration of herbicide and synergist. Paraquat was dissolved in water and atrazine in methanol. The cluster dishes were incubated on a reciprocal shaker with a clear plastic bottom and illuminated from top and bottom with fluorescent lights emitting 135 μEin.m^-2 s^-1 (top) and 170 μEin.m^-2 s^-1 (bottom). The cells were kept mixed by the shaker and incubation was at room temperature. Incubation was stopped when there was visually obvious loss of chlorophyll due to treatments in a given experiment. The cells were removed to glass centrifugation tubes, centrifuged and the supernatant removed. One ml of 80% aqueous acetone was added to extract chlorophyll, the debris were sedimented by centrifugation and chlorophyll was spectrophotometrically determined at 645 and 663 nm according to Arnon (Plant Physiology 24 1, (1949)). […] In another experiment, a larger variety of chelating synergists and oxidant generating herbicides were used, and light was given at a much higher intensity 1000 μEin m^-2 s^-1 to better approach natural sunlight which is at 1200-1500 […].
# Paraquat toxicity was measured 24 h after treatment and atrazine toxicity was measured 40 h after treatment.
# Paraquat toxicity was measured 14 h after treatment.
# [6] = system: Beans; experiment: Whole plant spray, visual rating; assay type: in vivo; settings: paraquat 100 μM spray to run-off, DDC 0.75% W/V where added, scored 1 day after treatment
# Source text: as §1, §3, §4
# [7] = system: Sinapsis arvense; experiment: Whole plant spray, visual rating; assay type: in vivo; settings: paraquat 30 μM spray to run-off, DDC 0.75% W/V where added, scored 1 day after treatment
# Source text: as §1, §3, §4
# [8] = system: Stellaria media; experiment: Whole plant spray, visual rating; assay type: in vivo; settings: paraquat 30 μM spray to run-off, DDC 0.75% W/V where added, scored 1 day after treatment
# Source text: as §1, §3, §4
# [9] = system: Conyza bonariensis low herbicide requiring biotype; experiment: Photosynthesis (14CO2 fixation) of leaf discs removed 5 h after spray treatment; assay type: in vivo; settings: foliar, acifluorfen 0 μM, DDC 0.5% alone, leaf discs removed 5 h after treatment, untreated control = 100
# Method: as §5
# ^b photosynthesis (^14 CO2 fixation) was used as an
# additional measurement of phytotoxicity. Leaf discs were removed 5 h afte
# treatment for measurement
SMILES,rate that does not kill resistant biotypes ([1]; biotypes that have evolved resistance to paraquat) [kg/ha],rate that controls the sensitive biotype ([1]; sensitive biotype of the same species) [kg/ha],chlorophyll - % of control [2],"effect of paraquat spray ([3]; 1 mM spray of paraquat, paraquat resistant biotype)","visual rating ([3]; paraquat 1000 μM spray to run-off, DDC 0.75% W/V where added, high herbicide requiring biotype, scored 1 day after treatment)","visual rating ([4]; paraquat 30 μM spray to run-off, DDC 0.75% W/V where added, scored 1 day after treatment)","chlorophyll remaining - % of control ([5]; isolated cladophyll cells, 840 min)","chlorophyll remaining - % of control ([5]; paraquat 10 μM, Tetraethylene-pentamine 0.025% where added, 14 h, 1000 μEin m^-2 s^-1)","chlorophyll remaining - % of control ([5]; paraquat 20 μM, 4-Octyl-2-acetyl-phenol oxime 0.125% where added, 14 h, 1000 μEin m^-2 s^-1)","chlorophyll remaining - % of control ([5]; paraquat 20 μM, Pyridine-2,6-dicarboxylic acid 0.005% where added, 14 h, 1000 μEin m^-2 s^-1)","chlorophyll remaining - % of control ([5]; paraquat 20 μM, di-2-ethyl-hexyl-phosphoric acid 0.001% where added, 14 h, 1000 μEin m^-2 s^-1)","% of control chlorophyll ([5]; paraquat 10^-6, DDC 0.02% where added, 24 h, 1 µM)",visual rating [6],visual rating [7],visual rating [8],"visual ratings ([3]; atrazine 0 μM, DDC 0.5% alone, high herbicide requiring biotype, scored one day after treatment)","visual ratings ([4]; atrazine 0 μM, DDC 0.5% alone, scored one day after treatment)",activity at 0.5 % [9] [%],"% of control chlorophyll ([5]; no herbicide, DDC 0.02% alone, atrazine series, 40 h)","% of control chlorophyll ([5]; no herbicide, DDC 0.02% alone, paraquat series, 24 h)"
"C[n+]1ccc(-c2cc[n+](C)cc2)cc1 [paraquat, 1,1'-dimethyl-4-4'bipyridium ion]",> 16,1,52 % of control,hardly affected,0.9,1.8,56 % of control,89 % of control,74 % of control,9 % of control,72 % of control,107 % of control,1.5,0.5,0.5,,,,,
"CCN(CC)C(=S)[S-].[Na+] [DDC, Sodium diethyldithiocarbamate]",,,,,,,,,,,,,,,,0.6,1.6,92,120 % of control,116 % of control
